# Values quoted from earlier work, collected in patent US20070098710A1, “Anxiolytic composition comprising essential oil derived from plants as active ingredients, anxiolytic comprising thereof, and a producing method thereof” (NATURE TECHNOLOGY, INC., priority 2004, published 2007).
# What was measured:
# male ICR mice = conditions: mouse, administered previously
SMILES,change of the emotionality (inhibition of looking into hole) by restraint stress (male ICR mice),solubility in ethanol (ethanol),solubility in water (water)
CN1C(=O)CN=C(c2ccccc2)c2cc(Cl)ccc21 [diazepam],improved,–,–
"CC1CCC(C(C)C)C(O)C1 (stereo not drawn) [l-menthol, 5-methyl 2-(1-methylethyl)cyclohexanol]",–,soluble in ethanol,insoluble in water
